Results: publication PMC4157788, “A Small Library of Synthetic Di-Substituted 1, 4-Naphthoquinones Induces ROS-Mediated Cell Death in Murine Fibroblasts” (PLoS ONE, 2014)
Read-outs that look alike come from different tables or passages of the source.

Columns and labels:
caspase 3 in L929 cells = test: Detection of active caspase-3 (colorimetric DEVD-pNA assay); format: cell-based, murine; conditions: 24 h treatment
Experimental: The assay was performed as per the manufacturers' instructions (BioSource International, Camarillo, CA). The L929 cells were plated at 3×10^6 cells per well in 6-well plates. The cells were then treated with the indicated compounds for 24 h. After treatment with the compounds, the cells were centrifuged, washed twice with 1× PBS, were re-suspended in 50 µL of chilled Cell Lysis Buffer and were incubated for 10 min. on ice. The samples were then centrifuged and the cytosolic extracts were then transferred to 96-well flat-bottom plates. Reaction buffer (5 µL of 1.0 M DTT to 500 µL of 2× Reaction buffer), made just prior to use, and was added to each well. DEVD-pNA substrate (5 µL) was then added to each well and the samples were incubated in the dark for an additional 2 h. The plates were then read on a spectrophotometer at a wavelength of 405 nm.

L929 cells [1] = test: Detection of reactive oxygen species (ROS) by DHCF-DA; format: cell-based, murine; conditions: compound at IC50, 24 hrs, fluorometric assay
Experimental: Cells were plated at 50,000 cells per well in 96-well plates, protected or unprotected by 10 µM ascorbic acid. Following a 4 h incubation period, the cells were then treated with the indicated compounds at the IC50 or with H2O2 as a positive control. Twenty-four hours later, the plates were centrifuged and the supernatants were collected. The adherent cells were treated with 20 µL of 0.25% trypsin (Invitrogen) for 2 min. The cells were then removed and transferred to black-walled 96-well plates to prevent bleeding of fluorescence between sample wells. Dichlorofluorescein-Diacetate (10 µM) (Invitrogen - Molecular Probes), was then added to each well. The plates were then immediately read on a fluorescent plate reader using excitation wavelength of 485 nm and emission wavelength of 538 nm. Fluorescence was determined every 10 min over a 320 min. period.

[2] = tested on: murine fibroblast cell line (L929); test: MTT viability assay; format: cell-based; conditions: L929 cells; for Toxicity group: 48 hrs, MTT, Group I no difference from DMSO, Group II dose-responsive inhibition, Group III >50% inhibition at the lowest concentration; for IC50: Mus musculus, read-out: IC50 (concentration of compound that induces 50% inhibition of survival); for IC50 / IC50 (concentration of compound that induces 50% inhibition of survival): MTT assay, 48 hrs incubation, doubling dilutions
Experimental: The MTT (3-(4, 5-dimethylthiazol-2-yl)-2, 5-diphenyl tetrazolium bromide) viability assays were carried out as per manufacturers' instructions (Sigma). The L929 cells were plated at 50,000 cells per well in a 96-well flat-bottom plate (Becton-Dickinson Labware, Franklin Lakes, NJ). The cells were cultured with decreasing concentrations of the compounds (in duplicate), beginning at 0.50 mg/ml and decreasing by half over eleven additional dilutions. As controls, cells remained untreated (media alone) or were treated with equivalent dilutions of dimethylsulfoxide (DMSO, vehicle control) (Sigma). Following a 48 h incubation, the MTT reagent was added at 10% of the total volume per well. Following a 4 h incubation, the formed crystals were solubilized by removing approximately ¾ of the supernatant and adding 50 µl of solvent (10% Triton × and 1% 12 N HCl in isopropanol) (Sigma). All wells were vigorously pipetted (without forming bubbles) to help dissolve the crystals. The plates were then read in a 96-well plate spectrophotometer at 570 nm.

L929 cells [3] = test: Flow cytometry assessment of apoptosis (Annexin V-FITC / propidium iodide); format: cell-based, murine; conditions: 48 hrs, IC50 (lowest concentration tested for highly cytotoxic compounds), versus medium alone
Experimental: The cells were then washed in FACS buffer (phosphate buffered saline +2% fetal bovine serum), resuspended in 50 µl of buffer and then incubated with 30% normal mouse serum (Sigma) to prevent non-specific staining, for 15 min. at room temperature. The cells were then treated with 5 µl of FITC-conjugated annexin V (1 mg/ml stock) and 2 µl of propidium iodide (5 mg/ml stock). The cells were then mixed gently and incubated at room temperature for 15 minutes in the dark followed by an analysis by flow cytometry within the hour.

L929 cells [4] = test: Ascorbic acid protection assay (MTT viability); format: cell-based, murine; conditions: L929 cells pre-loaded for 4 h with 10 µM ascorbic acid, compound at IC50, 48 hrs
Experimental: […] The cells were then thoroughly washed with Hank's Balanced Salt Solution (HBSS (Invitrogen) and the MTT viability assay was conducted as described above.

L929 cells [5] = test: Light microscopy of compound-treated cells (morphology); format: cell-based, murine; conditions: 24 hr, compound at IC50 (H2O2 600 µM), light microscopy 40X
Experimental: The cells were cultured for 24 h at 37°C, 5% CO2. […] Digital images were captured using the AxioCam HR digital camera and were processed with Axiovision Software, Version 4.1.

L929 cells [6] = test: Catalase and superoxide dismutase (SOD) protection assay (MTT viability); format: cell-based, murine; conditions: 48 hr; for Protection of compound-treated cells by SOD (viability): compound at IC50, SOD 0.5 mg/ml; for Protection of compound-treated cells by combination of catalase and SOD (viability): compound at IC50, catalase 1 mg/ml + SOD 0.5 mg/ml; for Protection of compound-treated cells by catalase (viability): compound at IC50, catalase 1 mg/ml
Experimental: L929 cells were plated at 50,000 cells/well in a 96-well flat-bottom plate. Catalase (1 mg/ml), SOD (0.5 mg/ml), or combinations of the two were added to the cells. The cells were also treated with the indicated compounds at a concentration that inhibited 50% of cellular viability or with media or DMSO as controls. Following a 48 h incubation period, cellular viability was assessed as described above (MTT assay).

L929 cells [7] = test: Detection of mitochondrial membrane depolarization (DePsipher, flow cytometry); format: cell-based, murine; conditions: compound at IC50, DePsipher
Experimental: L929 cells (5×10^4 cells/well) were cultured in 12-well plates for 48 h in the presence of medium, DMSO, camptothecin (4 µM, positive control) or compound (IC50). The cells were then washed in FACS buffer resuspended in 100 µl of buffer. DePsipher (5, 5′6, 6′-tetrachloro-1, 1′, 3, 3′-tetraethylbenzimidazolylcarbocyanine iodide) (5 µl per sample) (Trevigen, Inc., Gaithersburg, MD) was then added. The cells were incubated at room temp., in the dark for a minimum of 15 min. The cells were assayed within the hour by flow cytometry. 10,000 events per sample were collected and analyzed by EXPO32 software.

| SMILES | Toxicity group [2] | IC50 [2] [µg/mL] | IC50 ([2]; same value converted to µM) [µM] | Externalization of phosphatidylserine (Annexin V staining) (L929 cells [3]) | Effect on cellular morphology (L929 cells [5]) | also measured |
| --- | --- | --- | --- | --- | --- | --- |
| O=C1C(c2ccccc2)=C(c2ccccc2)C(=O)c2ccccc21 [Compound 2, 2,3-diphenyl-1,4-napthoquinone] | Group II Intermediate toxicity | 30 | 96.7 | promoted externalization of PS significantly above that induced by medium alone | detrimental to cell survival | Activation of caspase 3 (caspase 3 in L929 cells): activated caspase 3 equivalently; Formation of intracellular reactive oxygen species (ROS) (L929 cells [1]): induced levels of ROS equal to that induced by H2O2; Protection of compound-treated cells by ascorbic acid pre-treatment (viability) (L929 cells [4]): partially protected from cell death; Protection of compound-treated cells by SOD (viability) (L929 cells [6]): did not protect; Protection of compound-treated cells by combination of catalase and SOD (viability) (L929 cells [6]): did not protect the cells against compound 2 beyond that provided by catalase alone; Protection of compound-treated cells by catalase (viability) (L929 cells [6]): partially protected |
| CC1=C(C)C(=O)c2ccccc2C1=O [Compound 3, 2,3-dimethyl-1,4-napthoquinone] | – | 8 | 42.9 | promoted externalization of PS significantly above that induced by medium alone | – | – |
| CC(C)=CCC1=C(O)C(=O)c2ccccc2C1=O [Compound 4, 2-hydroxy-3-(3-methyl-2 butenil)-1, 4 naphthoquinone] | – | 15 | 62 | promoted externalization of PS significantly above that induced by medium alone | – | – |
| CC1=CC(=O)c2c(O)cccc2C1=O [Compound 5, 2-methyl-5-hydroxy-1,4-napthoquinone, reference compound] | Group III High toxicity | < 1 | < 5.3 | promoted externalization of PS significantly above that induced by medium alone | detrimental to cell survival | Activation of caspase 3 (caspase 3 in L929 cells): activated caspase 3 equivalently; Formation of intracellular reactive oxygen species (ROS) (L929 cells [1]): induced levels of ROS equal to that induced by H2O2; Change in mitochondrial membrane potential (depolarization) (L929 cells [7]): does not activate mitochondrial depolarization; Protection of compound-treated cells by ascorbic acid pre-treatment (viability) (L929 cells [4]): partially protected from cell death; Protection of compound-treated cells by SOD (viability) (L929 cells [6]): did not protect; Protection of compound-treated cells by combination of catalase and SOD (viability) (L929 cells [6]): did not protect; Protection of compound-treated cells by catalase (viability) (L929 cells [6]): did not protect |
| O=C1C=CC(=O)c2ccccc21 [Compound 6, 1,4-napthoquinone] | – | < 1 | < 6.3 | promoted externalization of PS significantly above that induced by medium alone | – | Activation of caspase 3 (caspase 3 in L929 cells): activated caspase 3 equivalently |
| O=C1C=CC(=O)c2c(O)cccc21 [Compound 7, 5-hydroxy-1,4-napthoquinone, reference compound] | – | < 1 | < 5.7 | promoted externalization of PS significantly above that induced by medium alone | – | – |
| N#CC1=C(C#N)C(=O)C(Cl)=C(Cl)C1=O [Compound 8, 2,3-dichloro-5,6-dicyano-1,4-benzoquinone] | Group I No toxicity | – | – | – | – | IC50 (concentration of compound that induces 50% inhibition of survival) [2]: No inhibition |
| CC1=C(C/C=C(\C)CCC[C@H](C)CCC[C@H](C)CCCC(C)C)C(=O)c2ccccc2C1=O [Compound 9, 2-methyl-3-phytyl-1,4-naphthoquinone, reference compound] | – | – | – | promoted externalization of PS significantly above that induced by medium alone | no effect on the cells | Formation of intracellular reactive oxygen species (ROS) (L929 cells [1]): induced ROS equal to that generated in non-treated cells; IC50 (concentration of compound that induces 50% inhibition of survival) [2]: No inhibition |
| O=C1c2ccccc2C(=O)C2OC12 (stereo not drawn) [Compound 10, 1,4-napthoquinone epoxide] | – | 4 | 23 | – | – | – |
| CCCC1=CC(=O)c2ccccc2C1=O [Compound 11, 2-propyl-1,4-napthoquinone] | Group II Low toxicity | 60 | 300 | promoted externalization of PS significantly above that induced by medium alone | – | – |
| CCC1=C(C)C(=O)c2ccccc2C1=O [Compound 12, 2-ethyl-3-methyl-1,4-napthoquinone] | – | 30 | 150 | – | – | – |
| OO [Compound H2O2, hydrogen peroxide] | – | – | – | – | rounded, granular, and vesiculated | – |
